Assay results from patent publication US20050222266A1, “2-indanylamino derivatives for the therapy of chronic pain” (priority 2002, published 2005).
Structures can show the parent of a compound that is named as a salt.

Tests used:
[1] = tested on: ion channel associated to NMDA receptors; assay: inhibiting activity on NMDA-associated ion channel; assay type: biochemical
[2] = tested on: thermal hyperalgesia produced by CCI; assay: Chronic Constriction Injury (CCI) model, thermal hyperalgesia (plantar test); assay type: in vivo; conditions: rat CCI
Experimental: The potential analgesic activity of CHF 3381 was evaluated the Chronic Constriction Injury (CCI) model described by Bennett et al (Pain 1988, 33: 87-107). Briefly, the rat left common sciatic nerve was exposed, and proximal to the sciatic trifurcation about 10 mm of nerve was freed of adhering tissue and four ligatures (4.0 silk ) were loosely tied around it with about 1 mm of spacing.
Two tests of hind limb withdrawal to thermal and cold stimuli were employed in this study. Each test was repeated on both the operated hind paw and the controlateral hind paw.
Rats were tested for thermal hyperalgesia using a commercial available analgesimeter (Plantar test, Ugo Basile, Comerio Italy) by applying heat stimulus (50 W, 8V) directed onto the plantar surface of each hind paw, and the paw withdrawal latency (s) was determined. Four latency measurements were taken for each hind paw and averaged. The apparatus was calibrated to give a paw withdrawal latency of approximately 10 sec. The results were expressed as the difference score (DS) by subtracting the latency of the control side from the latency of the ligated side; if this difference was less than 1.5 sec, the animal was not included in the experimental groups. CHF 3381 (10-30-60 mg/kg intraperitoneally -i.p.-) or vehicle were administered to animals 14-21 days after ligation and hyperalgesia tested 1, 2 and 4 hours after treatment. CHF3381 reversed the thermal hyperalgesia produced by CCI in a dose- and time-dependent manner with a maximum effect at 60 min after the administration.

[3] = tested on: mechanical hyperalgesia in streptozotocin (STZ)-induced diabetic neuropathy; assay: streptozotocin-induced diabetic neuropathy, paw pressure test; assay type: in vivo, rat; conditions: for Nociceptive threshold: 60 minutes before measurement; for % variation of the nociceptive threshold: vs vehicle-treated diabetic group
Experimental: The objective of this study was to assess the antinociceptive effects of CHF 3381 (25, 50 and 100 mg/kg p.o.) and gabapentin (100 mg/kg p.o) on mechanical hyperalgesia in streptozotocin (STZ)-induced diabetic neuropathy in rats. Diabetes was induced by intraperitoneal injection of STZ (75 mg/kg), and 23 days later its presence was confirmed by measuring of tail vein blood glucose levels and only rats with […] were included in the study.
After 25 days, distilled water, CHF3381 and gabapentin were administered 60 minutes before pain measurement. The nociceptive threshold was evaluated in all groups using a mechanical nociceptive stimulation (paw pressure test).
An increasing pressure (grams of contact pressure) was applied onto the both hind paws of the animal until a nociceptive reaction (vocalisation or paw withdrawal) was determined. The results, expressed as the percentage variation of the nociceptive threshold calculated respect the mean value of the vehicle-treated diabetic group, are reported in Table 2.

[4] = tested on: acute pain, hot plate 55° C.; assay: hot-plate test, mice; assay type: in vivo; conditions: 15 min
Experimental: The effect of CHF 3381 was studied in acute pain with hot-plate test described by Eddy et al (1953). The test was performed on an electrically heated and thermostatically controlled copper surface, set to a temperature of 55 or 51° C. with mice and rats, respectively.
The animals were confined to the hot plate by a transparent observation chamber and the latency to the response consisting of licking of the hind paws, was measured. A cut-off period of 60 sec was used to avoid tissue damage.
After i.p. administration, CHF 3381 (30-45-60 and 100 mg/kg in mouse; 30-37-45 and 60 mg/kg in rats), produced a significant and dose-dependent increase in the latency of the hindpaw licking response compared to vehicle-treated animals (Table 6).

rotarod test, mice = conditions: mouse, in vivo, 15 min before test
Experimental: (§1) The side-effect profile of CHF 3381 was then evaluated in the rotarod test both in mice and rats. The day before the execution of the test, mice and rats were trained to maintain their equilibrium on the test apparatus. For mice, training consisted of 3 subsequent 2 min attempts on a rod rotating from 4.5 r.p.m. to 16.5 r.p.m.; for rats, of 3 subsequent 1 min attempts at 8 rpm (Kinnard and Carr, 1957). The morning of the test day, mice and rats were again tested on the rotarod and only animals able to maintain their equilibrium on the rod were retained for the experimental procedure. CHF 3381 was administered p.o. or i.p. to groups of at least 8 animals 15 min (time of peak effect for neurotoxicity) before the execution of the test. All controls received the corresponding vehicle. The number of mice falling during a 2-min test period and the number of rats falling for 3 subsequent 1-min attempts were used for the calculation of the respective doses at which 50% of the animals display neurotoxicity (TD50).

rotarod test, rats = conditions: rat, in vivo, 15 min before test
Experimental: as §1

SMILES: NC(=O)CNC1Cc2ccccc2C1 [CHF 3381, N-2(indanyl)-glicinamide hydrochloride]
- inhibiting activity towards ion channel associated to NMDA receptors [1]: inhibiting activity
- Hyperalgesia Difference score (DS) ([2]; 10 mg/kg i.p.): 1.41 ± 0.36 s
- Hyperalgesia Difference score (DS) ([2]; 30 mg/kg i.p.): 0.83 ± 0.35 s
- Hyperalgesia Difference score (DS) ([2]; 60 mg/kg i.p.): 0.68 ± 0.14 s
- Nociceptive threshold ([3]; 25 mg/kg p.o.): 250.0 ± 17.0 g
- % variation of the nociceptive threshold ([3]; 25 mg/kg p.o.): 83%
- Nociceptive threshold ([3]; 50 mg/kg p.o.): 319.2 ± 48.5 g
- % variation of the nociceptive threshold ([3]; 50 mg/kg p.o.): 134%
- Nociceptive threshold ([3]; 100 mg/kg p.o.): 287.5 ± 20.3 g
- % variation of the nociceptive threshold ([3]; 100 mg/kg p.o.): 110%
- latency of the hindpaw licking response ([4]; 30 mg/kg i.p.): 19.40 ± 1.37 s
- latency of the hindpaw licking response ([4]; 45 mg/kg i.p.): 20.16 ± 1.73 s
- latency of the hindpaw licking response ([4]; 60 mg/kg i.p.): 26.95 ± 2.45 s
- latency of the hindpaw licking response ([4]; 100 mg/kg i.p.): 37.71 ± 3.17 s
- TD50 at 15 min (rotarod test, mice; ip, i.p. administration): 96 mg/kg
- TD50 at 15 min (rotarod test, mice; oral administration): 233 mg/kg
- TD50 at 15 min (rotarod test, rats; ip, i.p. administration): 113 mg/kg
- TD50 at 15 min (rotarod test, rats; oral administration): 299 mg/kg
